Test results taken from ChEMBL document CHEMBL3352059, “Neuroprotective effects of a brain permeant 6-aminoquinoxaline derivative in cell culture conditions that model the loss of dopaminergic neurons in Parkinson disease” (Eur J Med Chem, 2015).
≈ marks a conversion by molar mass, not a printed value. Calls of active or inactive are those of the source. The rule behind the calls is not given here.

How the values were obtained:
Rattus norvegicus [1] = organism: Rattus norvegicus; test: Neuroprotective effect in Sprague-Dawley rat DA neurons at 10 uM under chronic oxidative stress condition; assay type: functional
Rattus norvegicus [2] = organism: Rattus norvegicus; test: Neuroprotective effect in Sprague-Dawley rat DA neurons assessed as [3H]-DA uptake after 10 days by liquid scintillation spectrometry relative to control; assay type: functional
Rattus norvegicus [3] = organism: Rattus norvegicus; test: Neuroprotective effect in Sprague-Dawley rat DA neurons after 10 days by immunofluorescence assay; assay type: functional
Rattus norvegicus [4] = organism: Rattus norvegicus; test: Neuroprotective effect in Sprague-Dawley rat DA neurons assessed as developement of neuritic network after 10 days by microscopic analysis relative to control; assay type: functional
[5] = Antioxidant activity assessed as radical scavenging activity after 1 hr by ABTS competition assay; assay type: physicochemical
Rattus norvegicus [6] = organism: Rattus norvegicus; test: Neuroprotective effect in Sprague-Dawley rat DA neurons at 1 mM after 10 days by immunofluorescence assay; assay type: functional
Rattus norvegicus [7] = organism: Rattus norvegicus; test: Antiproliferative activity at Sprague-Dawley rat DA neurons assessed as reduction of [3H]-thymidine incorporation at 1 mM after 8 days by liquid scintillation spectrometry; assay type: functional
Rattus norvegicus [8] = organism: Rattus norvegicus; test: Neuroprotective effect in Sprague-Dawley rat DA neurons assessed as developement of neuritic network at 100 uM after 10 days by microscopic analysis relative to control; assay type: functional
Rattus norvegicus [9] = organism: Rattus norvegicus; test: Neuroprotective effect in Sprague-Dawley rat DA neurons at 100 uM after 10 days by immunofluorescence assay; assay type: functional
[10] = Drug uptake in C57BL/6J mouse ventral mesencephalon at 75 mg/kg, po after 1 hr by MALDI-TOF mass spectrometry; assay type: ADME, organism-based; design: dose 75 mg/kg, route oral; settings: in vivo
Nucleic Acid = test: Ratio of drug uptake in C57BL/6J mouse striatum to cortical area at 75 mg/kg, po after 1 hr by MALDI-TOF mass spectrometry; assay type: ADME, organism-based; design: dose 75 mg/kg, route oral; settings: in vivo
Rattus norvegicus [11] = organism: Rattus norvegicus; test: Neuroprotective effect in Sprague-Dawley rat DA neurons under GDNF deprived condition at 50 to 100 uM; assay type: functional
Rattus norvegicus [12] = organism: Rattus norvegicus; test: Neuroprotective effect in Sprague-Dawley rat DA neurons assessed as [3H]-DA uptake at 100 uM after 10 days by liquid scintillation spectrometry relative to control; assay type: functional
Rattus norvegicus [13] = organism: Rattus norvegicus; test: Neuroprotective effect in Sprague-Dawley rat DA neurons at 100 uM in presence of anti-GDNF antibody AB-212-NA; assay type: functional
[14] = Aqueous solubility of the compound at pH 7.4 after 5 mins by HPLC analysis; assay type: physicochemical
Brain [15] = test: Drug uptake in C57BL/6J mouse brain at 150 mg/kg, po bid administered for 4 days followed by single dose on day 5 measured 1 hr post last dose; assay type: ADME, organism-based; design: dose 150 mg/kg, route oral; settings: in vivo
Mus musculus [16] = test: Toxicity in C57BL/6J mouse assessed as change in body weight at 150 mg/kg, po bid administered for 4 days followed by single dose on day 5 […]; assay type: organism-based; design: dose 150 mg/kg, route oral; settings: in vivo, 96 h
Brain [17] = test: Drug uptake in C57BL/6J mouse brain at 75 mg/kg, po after 1 hr by MALDI-TOF mass spectrometry; assay type: ADME, organism-based; design: dose 75 mg/kg, route oral; settings: in vivo
Rattus norvegicus [18] = organism: Rattus norvegicus; test: Neuroprotective effect in Sprague-Dawley rat DA neurons under chronic oxidative stress condition; assay type: functional
Mus musculus [19] = test: Toxicity in C57BL/6J mouse assessed as change in food intake at 150 mg/kg, po bid administered for 4 days followed by single dose on day 5 […]; assay type: organism-based; design: dose 150 mg/kg, route oral; settings: in vivo, 96 h
Mus musculus [20] = test: Toxicity in C57BL/6J mouse assessed as behavioral change at 150 mg/kg, po bid administered for 4 days followed by single dose on day 5 […]; assay type: organism-based; design: dose 150 mg/kg, route oral; settings: in vivo, 96 h
[21] = Ratio of drug uptake from brain to plasma in C57BL/6J mouse at 150 mg/kg, po bid administered for 4 days followed by single dose on day 5 measured 1 hr post last dose; assay type: ADME, organism-based; design: dose 150 mg/kg, route oral; settings: read-out: BPR
Striatum = test: Drug uptake in C57BL/6J mouse striatum at 75 mg/kg, po after 1 hr by MALDI-TOF mass spectrometry; assay type: ADME, organism-based; design: dose 75 mg/kg, route oral; settings: in vivo
Rattus norvegicus [22] = organism: Rattus norvegicus; test: Antiproliferative activity at Sprague-Dawley rat DA neurons assessed as reduction of [3H]-thymidine incorporation at 50 to 100 uM after 8 days by liquid scintillation spectrometry; assay type: functional
Rattus norvegicus [23] = organism: Rattus norvegicus; test: Neuroprotective effect in Sprague-Dawley rat DA neurons assessed as developement of neuritic network at 10 uM after 10 days by microscopic analysis relative to control; assay type: functional
Rattus norvegicus [24] = organism: Rattus norvegicus; test: Neuroprotective effect in Sprague-Dawley rat DA neurons at 10 uM after 10 days by immunofluorescence assay; assay type: functional
Rattus norvegicus [25] = organism: Rattus norvegicus; test: Neuroprotective effect in Sprague-Dawley rat DA neurons assessed as [3H]-DA uptake at 10 uM after 10 days by liquid scintillation spectrometry relative to control; assay type: functional

For `CC(=O)N(O)CCCCCNC(=O)CCC(=O)N(O)CCCCCNC(=O)CCC(=O)N(O)CCCCCN`, the Activity (Rattus norvegicus [1]) was “Active”.

For `CCCCc1cnc2ccc(N)cc2n1`, the Activity (Rattus norvegicus [2]) was “inactive”, the Activity (Rattus norvegicus [3]) was “inactive” and the Activity (Rattus norvegicus [4]) was “inactive”.

In the case of `Cc1c(C)c2c(c(C)c1O)CCC(C)(C(=O)O)O2` (configuration not stated) [TROLOX], the IC50 [5] is reported as 270 µM.

In the case of `CCCC(=O)Nc1ncnc2c1ncn2[C@@H]1O[C@@H]2COP(=O)(O)O[C@H]2[C@H]1OC(=O)CCC`, the Activity (Rattus norvegicus [6]) is reported as “Active” and the Activity (Rattus norvegicus [7]) is reported as “Active”.

In the case of `CCCCCCc1nc2ccc(N)cc2nc1CCCC`, the Activity (Rattus norvegicus [2]) is reported as “inactive”, the Activity (Rattus norvegicus [3]) is reported as “inactive” and the Activity (Rattus norvegicus [4]) is reported as “inactive”.

With `Nc1ccc2nccnc2c1` the Activity (Rattus norvegicus [2]) was “inactive”, the Activity (Rattus norvegicus [3]) was “inactive” and the Activity (Rattus norvegicus [4]) was “inactive”.

In the case of `Cc1nc2ccc(N)cc2nc1-c1ccccc1`, the Activity (Rattus norvegicus [8]) is reported as “Active”, the Activity (Rattus norvegicus [9]) is reported as “Active” and the Drug uptake [10] is reported as “Active”. The Ratio (Nucleic Acid) was 2.7, the Activity (Rattus norvegicus [11]) was “Active” and the Activity (Rattus norvegicus [12]) was “Active”. The Activity (Rattus norvegicus [13]) was “Active”, the solubility at 5 min [14] was 125 µM (≈ 29.4 µg/mL) and the Drug uptake (Brain [15]) was “Active”. For the same compound, the Activity (Mus musculus [16]) was “Non-toxic”, the Drug uptake (Brain [17]) was “Active” and the Activity (Rattus norvegicus [18]) was “Dose-dependent effect”. For the same compound, the Activity (Mus musculus [19]) was “Non-toxic”, the Activity (Mus musculus [20]) was “Non-toxic” and the Kp at 1 h [21] was 1. The Activity (Rattus norvegicus [1]) was “Active”, the IC50 [5] was 350 µM and the Drug uptake (Striatum) was “Active”. The Activity (Rattus norvegicus [22]) was “Active”.

With `CCCCc1nc2cc(N)ccc2nc1C` the Activity (Rattus norvegicus [2]) was “inactive”, the Activity (Rattus norvegicus [3]) was “inactive” and the Activity (Rattus norvegicus [4]) was “inactive”.

For `Cc1cnc2cc(N)ccc2n1`, the Activity (Rattus norvegicus [2]) was “inactive”, the Activity (Rattus norvegicus [3]) was “inactive” and the Activity (Rattus norvegicus [4]) was “inactive”.

In the case of `CCCCCCCCCCCCCCCNc1ccc2nc(C)cnc2c1`, the solubility at 5 min [14] is reported as 5 µM (≈ 1.85 µg/mL), the Activity (Rattus norvegicus [23]) is reported as “Active” and the Activity (Rattus norvegicus [24]) is reported as “inactive”. For the same compound, the Activity (Rattus norvegicus [25]) was “Active”.
